Test results taken from US20080009546A1 (Chevron U.S.A. Inc., priority 2005, published 2008).
Like-named read-outs stand apart in the source and are kept apart here.

Tests used:
[1] = Dissolving compounds to make 10 mM stock solution; assay type: physicochemical; conditions: deionized water or assay friendly solvents, hot water
Method: Following assay establishment, the test compounds were tested for binding affinities. The concentrations selected for the experiments were chosen according to what was found for memantine in our assay. The first task was to dissolve the compounds and make up the 10 mM stock solution for further experiments. Those compounds that were made into salt format were easy to dissolve in deionized water, but the other compounds were difficult to bring into solution. Several “assay friendly” solvents have been tried, such as molecusol, acetic acid and propylene glycol followed by putting the vial into hot water.

C57/BL6 male mice [2] = test: Pentylenetetrazol (PTZ)-induced seizure/death model; assay type: in vivo, mouse
Method: Although the protection against death is the key endpoint, other effects of the compounds on PTZ-induced seizures were also assessed using multiple parameters. For the mice that did die within the 30 minute observation window, the time of death was also compared. […] The seizure occurrence rate, onset time and number of level 3 (L3) seizure (repetitive seizures but the animal can still stand) and level 4 (L4) seizure (repetitive seizures and the animal loses righting) are also analyzed. The MDT compound (30 mg/kg) treated groups show a certain degree of improvement compared to control. No data from MK801 or memantine were included because the seizures occurring under these treatments are totally different from the control or MDT injected groups due to side effects (“high jumping”).

C57/BL6 male mice [3] = conditions: 0.5 mg/kg i.p.
NMDA receptor = test: Whole-cell voltage-clamp recordings of NMDA evoked currents in hypocretin neurons (hypothalamic slices); assay type: cell-based, mouse; conditions: 100 nM, bath application, -60 mV, mean±SEM
[4] = tested on: primary neurons from rat cerebral cortex; test: NMDA-induced LDH release assay in primary cortical neurons (neuroprotection); assay type: cell-based
How it was run: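 Fetal rat (E16–E18) cortical neurons on mouse astroglial feeder layers, fed growth medium/neurobasal+B27 (1:1), used after 11–14 days. Treatments given in Locke's buffer pH 7.4 for 15 min, then cells washed; 24 h later percent LDH released = 100×secreted/(total+secreted), tetrazolium readout.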

C57/BL6 male mice [5] = test: Rotarod test (balance and coordination, side effects); conditions: 1 mg/kg i.p.
Method: The side effects of the compounds was primarily evaluated using the rotarod test, which mainly assesses the balancing and coordination of mice. The comparisons were made on fall time of the mice between the first measure (pre-treatment) and second measure taken 20 min after the drug/vehicle injection in the same group (paired t-test). […] Comparisons of the rotatod fall times after drug/vehicle dosing were made between drug treatment and control groups (unpaired t-test).

[6] = NMDA 300 uM + MK801 1 uM, Plate #4, poly-lysine-coated rat neurons, GM/NB + B-27 fed, 24 hour incubation
[7] = NMDA 300 uM + MK801 1 uM, Plate #5, astrocyte-coated rat neurons, GM fed, 24 hour incubation
[8] = NMDA 300 uM + MK801 1 uM, astrocyte-coated rat neurons, GM/NB + B-27 fed, 24 hour incubation
[9] = NMDA 500 μM + MK801 1 μM, astrocyte-coated rat neurons, GM/NB + B-27 fed, 21 hour incubation
[10] = NMDA 500 uM + MK801 1 uM, poly-lysine-coated rat neurons, GM/NB + B-27 fed, 40 hour incubation

O=C(O)C12CC3CC4C5CC(CC41)CC2C5C3 [MDT-17]
dissolution for 10 mM stock solution [1]: did not go into solution, or came out with time

O=C(O)C12CC3CC4C1CC1CC2C(C3)C4(C(=O)O)C1 [MDT-19]
dissolution for 10 mM stock solution [1]: did not go into solution, or came out with time

O=C(O)C12CC3C4CC5(C(=O)O)CC3C(C1)C(C5)C4C2 [MDT-20]
dissolution for 10 mM stock solution [1]: did not go into solution, or came out with time

C[C@]12N[C@H](Cc3ccccc31)c1ccccc12 [MK-801, reference compound]
Mortality rate (C57/BL6 male mice [2]; 1.0 mg/kg i.p.): 0 | PTZ-induced death (C57/BL6 male mice [2]; 1 mg/kg i.p., PTZ 100 mg/kg): full protection | # of deaths within 30 min (C57/BL6 male mice [2]; 1.0 mg/kg i.p., 6 mice, PTZ 100 mg/kg): 0 | Extension rate (C57/BL6 male mice [3]): 0.50 | Mortality rate (C57/BL6 male mice [3]): 0.50 | MES-induced death (C57/BL6 male mice [3]; mice): little effect compared to control | # of deaths (C57/BL6 male mice [3]; 6 mice): 3 | # of extensions (C57/BL6 male mice [3]; 6 mice): 3 | inhibition of the peak amplitude of NMDA evoked currents (NMDA receptor): 58±9.4% | % (Control Wash = 100) [4, 6]: 143% | Secreted LDH (Avg) [4, 6]: 0.62 | Secreted/(total + secreted) (Avg) [4, 6]: 15.63 | Total LDH (Avg) [4, 6]: 3.34 | % (Control Wash = 100) [4, 7]: 92% | Secreted LDH (Avg) [4, 7]: 0.18 | Secreted/(total + secreted) (Avg) [4, 7]: 5.43 | Total LDH (Avg) [4, 7]: 3.18 | % (Control Wash = 100) [4, 8]: 241% | Secreted LDH (Avg) [4, 8]: 0.74 | Secreted/(total + secreted) (Avg) [4, 8]: 17.39 | Total LDH (Avg) [4, 8]: 3.51 | % (Control Wash = 100) [4, 9]: 125% | Secreted LDH (Avg) [4, 9]: 0.43 | Secreted/(total + secreted) (Avg) [4, 9]: 10.39 | Total LDH (Avg) [4, 9]: 3.71 | % (Control Wash = 100) [4, 10]: 96% | Secreted LDH (Avg) [4, 10]: 0.36 | Secreted/(total + secreted) (Avg) [4, 10]: 11.04 | Total LDH (Avg) [4, 10]: 2.90 | hyperactivity (side effect) (C57/BL6 male mice [5]): observed
